Results on one compound are retold here after patent publication US20260224588A1, “BENZODIAZEPINONE-DERIVED INHIBITORS OF EGFR AND HER2” (The Research Foundation for the State University of New York, priority 2023, published 2026).

For orientation: IC50 means the point on the concentration scale where inhibition reaches its midpoint.

The target in test [1] is T1, EGFR L858R/T790M/C797S kinase domain (Homo sapiens, UniProt P00533, C797S/L858R/T790M).
T1 construct: The EGFR kinase domain (residues 696-1022) was cloned into pTriEx; 6xHis (N, cleaved yes); GST (N, cleaved yes); made in house; host or cells: SF9 insect cells (baculovirus)
The test can be described thus: HTRF-based activity assay. The format is biochemical. The conditions noted are these: 100 μM ATP, enzyme 0.02 nM, read-out: Biochemical EGFR IC50, LRTMCS. The procedure:
Protein expression and purification. The EGFR kinase domain (residues 696-1022) was cloned into pTriEx with an N-terminal 6×His-glutathione S-transferase (GST) fusion tag followed by a TEV protease cleavage site. EGFR WT, L858R, L858R/T790M, L858R/T790M/C797S was expressed after baculoviral infection in SF9 cells and EGFR(T790M/V948R) was expressed in SF21 cells. Briefly, cells were pelleted and resuspended in lysis buffer composed of 50 mM Tris pH 8.0, 500 mM NaCl, 1 mM tris(2-carboxyethyl)phosphine (TCEP), and 5% glycerol. Cells were lysed via sonication prior to ultracentrifugation at >200,000 g for 1 h. Imidazole pH 8.0 was added to the supernatant for a final concentration of 40 mM and flowed through a column containing Ni-NTA agarose beads. The resin was washed with lysis buffer supplemented with 40 mM imidazole and eluted with lysis buffer containing 200 mM imidazole. Eluted EGFR kinase domain was dialyzed overnight in the presence of 5% (w/w) TEV protease against dialysis buffer containing 50 mM Tris pH 8.0, 500 mM NaCl, 1 mM TCEP, and 5% glycerol. The cleaved protein was passed through Ni-NTA resin to remove the 6×His-GST fusion protein and TEV prior to size exclusion chromatography on a prep-grade Superdex S200 column in 50 mM Tris pH 8.0, 500 mM NaCl, 1 mM TCEP, and 5% glycerol.
HTRF Assays. Biochemical assays for EGFR domains were carried out using a homogeneous time-resolved fluorescence (HTRF) KinEASE-TK (Cisbio) assay, as described previously. Assays were optimized for ATP concentration of 100 μM with enzyme concentrations WT EGFR 10 nM, L858R 0.1 nM, L858R/T790M at 0.02 nM and L858R/T790M/C797S at 0.02 nM. Inhibitor compounds in DMSO were dispensed directly in 384-well plates with the D300 digital dispenser (Hewlett Packard) followed immediately by the addition of aqueous buffered solutions using the Multidrop Combi Reagent Dispenser (Thermo Fischer). […] The curves were fitted using a non-linear regression model with a sigmoidal dose response.
(In TR-FRET formats the signal depends on donor and acceptor labels being close together.)

A further test addresses ASK2 (Homo sapiens, UniProt O95382). The test can be described thus: KINOMEscan. The test is classed as binding. The conditions noted are these: 1 μM of compound 4; read-out: POC.
The target of the next test is CAMK2B (Homo sapiens, UniProt Q13554). The test can be described thus: KINOMEscan. The test is classed as binding. The conditions noted are these: 1 μM of compound 4; read-out: POC.
The next test deals with CSNK1G1 (Homo sapiens, UniProt Q9HCP0). The test can be described thus: KINOMEscan. The settings on record: 1 μM of compound 4; read-out: POC. The format is binding.
A further test concerns the target T2, EPHA4 (Homo sapiens, UniProt P54764).
T2 construct: purchased Eurofins DiscoverX (KINOMEscan service)
In words: KINOMEscan. The format is binding. The settings on record: 1 μM of compound 4; read-out: POC.

The target in another test is T3, HCK (Homo sapiens, UniProt P08631).
T3 construct: purchased Eurofins DiscoverX Corporation
In words: KINOMEscan. The conditions noted are these: 1 μM of compound 4; read-out: POC. The format is binding.

In another test the target is KIT(A829P) (Homo sapiens, UniProt P10721, A829P). The test can be described thus: KINOMEscan. The test is classed as binding. The settings on record: 1 μM of compound 4; read-out: POC.
In another test the target is LATS2 (Homo sapiens, UniProt Q9NRM7). In words: KINOMEscan. The settings on record: 1 μM of compound 4; read-out: POC. The format is binding.
In another test the target is MAP3K1 (Homo sapiens, UniProt Q13233). In words: KINOMEscan. The format is binding. The conditions noted are these: 1 μM of compound 4; read-out: POC.
For a further test, the target named is MAP3K2 (Homo sapiens, UniProt Q9Y2U5). In words: KINOMEscan. The test is classed as binding. The conditions noted are these: 1 μM of compound 4; read-out: POC.
The next test concerns the target MKNK2 (Homo sapiens, UniProt Q9HBH9). The test can be described thus: KINOMEscan. The test is classed as binding. The settings on record: 1 μM of compound 4; read-out: POC.
The target of a further test is T4, NEK9 (Homo sapiens, UniProt Q8TD19).
T4 construct: purchased Eurofins DiscoverX Corporation (KINOMEscan)
In words: KINOMEscan. The format is binding. The conditions noted are these: 1 μM of compound 4; read-out: POC.

In another test the target is PKMYT1 (Homo sapiens, UniProt Q99640). In words: KINOMEscan. The conditions noted are these: 1 μM of compound 4; read-out: POC. The format is binding.
A further test concerns the target T5, PYK2 (Homo sapiens, UniProt Q14289).
T5 construct: purchased Eurofins DiscoverX Corporation (KINOMEscan screening service)
The test can be described thus: KINOMEscan. The test is classed as binding. The settings on record: 1 μM of compound 4; read-out: POC.

In another test the target is T6, RIOK3 (Homo sapiens, UniProt O14730).
T6 construct: purchased Eurofins DiscoverX Corporation (KINOMEscan screening service)
In words: KINOMEscan. The settings on record: 1 μM of compound 4; read-out: POC. The test is classed as binding.

Another test has as its target T7, SGK (Homo sapiens, UniProt O00141).
T7 construct: purchased Eurofins DiscoverX (KINOMEscan service)
The test can be described thus: KINOMEscan. The format is binding. The conditions noted are these: 1 μM of compound 4; read-out: POC.

In another test the target is T8, SLK (Homo sapiens, UniProt Q9H2G2).
T8 construct: purchased Eurofins DiscoverX (KINOMEscan service)
In words: KINOMEscan. The test is classed as binding. The settings on record: 1 μM of compound 4; read-out: POC.

The next test deals with T9, SRPK1 (Homo sapiens, UniProt Q96SB4).
T9 construct: purchased Eurofins DiscoverX (KINOMEscan service)
The test can be described thus: KINOMEscan. The conditions noted are these: 1 μM of compound 4; read-out: POC. The test is classed as binding.

In a further test the target is T10, TNIK (Homo sapiens, UniProt Q9UKE5).
T10 construct: purchased Eurofins DiscoverX Corporation
The test can be described thus: KINOMEscan. The test is classed as binding. The settings on record: 1 μM of compound 4; read-out: POC.

In a further test the target is T11, VRK2 (Homo sapiens, UniProt Q86Y07).
T11 construct: purchased Eurofins DiscoverX
In words: KINOMEscan. The test is classed as binding. The conditions noted are these: 1 μM of compound 4; read-out: POC.

Test [2] has as its system EGFR (L858R/T790M) in H1975 lung cancer cells. In words: Western blotting of EGFR, ERK1/2 and AKT phosphorylation. The test is classed as cell-based, human. The conditions noted are these: 6 hours treatment. The procedure: FIG. 2. […] All experiments performed after 6 hours treatments of inhibitors or DMSO controls and Western blots are representative of at least three independent experiments.
Western blotting. Cells were collected and lysed with lysis buffer (5M NaCl, 1M TRIS pH 8.0, 10% SDS, 10% Triton X-100 and a tablet of protease inhibitors) and processed for Western blotting analysis. Primary antibodies used; phospho-EGFR (Tyr1068; #2234, 1:1,000), EGFR (#4267; 1:1,000), phospho-AKT (Ser473; #4060, 1:1,000), AKT (#9272, 1:1,000), phospho-ERK1/2 (Thr202/Tyr204; #4370, 1:1,000), and ERK1/2 (#4695, 1:1,000) antibodies; were purchased from Cell Signaling Technology. Secondary Goat anti-rabbit IgG starbright blue 700 and Anti-tubulin hFAB Rhodamine Tubulin were purchased from Bio-rad.
(A western blot detects proteins with antibodies after separation by electrophoresis.)

“Also recorded” adds a separate entry of the source.

T2 sequence (P54764 20-986): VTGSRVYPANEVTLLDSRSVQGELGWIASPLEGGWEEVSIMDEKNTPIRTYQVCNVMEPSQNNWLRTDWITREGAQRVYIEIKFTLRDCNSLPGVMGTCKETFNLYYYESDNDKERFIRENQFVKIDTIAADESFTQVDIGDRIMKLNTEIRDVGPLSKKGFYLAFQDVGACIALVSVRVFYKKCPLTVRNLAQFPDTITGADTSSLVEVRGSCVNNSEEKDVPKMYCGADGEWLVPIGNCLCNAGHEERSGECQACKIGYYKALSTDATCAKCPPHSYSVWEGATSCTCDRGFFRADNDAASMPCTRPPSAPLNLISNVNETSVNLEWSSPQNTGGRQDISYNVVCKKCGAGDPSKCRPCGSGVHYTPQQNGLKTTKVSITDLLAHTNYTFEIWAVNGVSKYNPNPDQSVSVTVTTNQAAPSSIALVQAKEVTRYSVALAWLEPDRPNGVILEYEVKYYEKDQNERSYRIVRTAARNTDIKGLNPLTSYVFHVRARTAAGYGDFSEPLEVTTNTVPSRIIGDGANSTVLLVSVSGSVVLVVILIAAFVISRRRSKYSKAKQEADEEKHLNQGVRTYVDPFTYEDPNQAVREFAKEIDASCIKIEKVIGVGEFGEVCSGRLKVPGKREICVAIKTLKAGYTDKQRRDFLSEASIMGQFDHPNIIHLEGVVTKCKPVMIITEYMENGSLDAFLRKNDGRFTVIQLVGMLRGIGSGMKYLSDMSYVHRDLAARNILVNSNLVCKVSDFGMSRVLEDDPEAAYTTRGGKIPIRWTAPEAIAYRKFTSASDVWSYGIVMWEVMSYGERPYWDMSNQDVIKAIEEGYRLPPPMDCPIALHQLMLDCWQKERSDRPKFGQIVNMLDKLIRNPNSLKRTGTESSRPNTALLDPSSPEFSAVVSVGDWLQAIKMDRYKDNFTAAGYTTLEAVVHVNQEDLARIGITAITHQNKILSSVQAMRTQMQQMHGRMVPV
Chain of MAP3K1 (Q13233 whole entry): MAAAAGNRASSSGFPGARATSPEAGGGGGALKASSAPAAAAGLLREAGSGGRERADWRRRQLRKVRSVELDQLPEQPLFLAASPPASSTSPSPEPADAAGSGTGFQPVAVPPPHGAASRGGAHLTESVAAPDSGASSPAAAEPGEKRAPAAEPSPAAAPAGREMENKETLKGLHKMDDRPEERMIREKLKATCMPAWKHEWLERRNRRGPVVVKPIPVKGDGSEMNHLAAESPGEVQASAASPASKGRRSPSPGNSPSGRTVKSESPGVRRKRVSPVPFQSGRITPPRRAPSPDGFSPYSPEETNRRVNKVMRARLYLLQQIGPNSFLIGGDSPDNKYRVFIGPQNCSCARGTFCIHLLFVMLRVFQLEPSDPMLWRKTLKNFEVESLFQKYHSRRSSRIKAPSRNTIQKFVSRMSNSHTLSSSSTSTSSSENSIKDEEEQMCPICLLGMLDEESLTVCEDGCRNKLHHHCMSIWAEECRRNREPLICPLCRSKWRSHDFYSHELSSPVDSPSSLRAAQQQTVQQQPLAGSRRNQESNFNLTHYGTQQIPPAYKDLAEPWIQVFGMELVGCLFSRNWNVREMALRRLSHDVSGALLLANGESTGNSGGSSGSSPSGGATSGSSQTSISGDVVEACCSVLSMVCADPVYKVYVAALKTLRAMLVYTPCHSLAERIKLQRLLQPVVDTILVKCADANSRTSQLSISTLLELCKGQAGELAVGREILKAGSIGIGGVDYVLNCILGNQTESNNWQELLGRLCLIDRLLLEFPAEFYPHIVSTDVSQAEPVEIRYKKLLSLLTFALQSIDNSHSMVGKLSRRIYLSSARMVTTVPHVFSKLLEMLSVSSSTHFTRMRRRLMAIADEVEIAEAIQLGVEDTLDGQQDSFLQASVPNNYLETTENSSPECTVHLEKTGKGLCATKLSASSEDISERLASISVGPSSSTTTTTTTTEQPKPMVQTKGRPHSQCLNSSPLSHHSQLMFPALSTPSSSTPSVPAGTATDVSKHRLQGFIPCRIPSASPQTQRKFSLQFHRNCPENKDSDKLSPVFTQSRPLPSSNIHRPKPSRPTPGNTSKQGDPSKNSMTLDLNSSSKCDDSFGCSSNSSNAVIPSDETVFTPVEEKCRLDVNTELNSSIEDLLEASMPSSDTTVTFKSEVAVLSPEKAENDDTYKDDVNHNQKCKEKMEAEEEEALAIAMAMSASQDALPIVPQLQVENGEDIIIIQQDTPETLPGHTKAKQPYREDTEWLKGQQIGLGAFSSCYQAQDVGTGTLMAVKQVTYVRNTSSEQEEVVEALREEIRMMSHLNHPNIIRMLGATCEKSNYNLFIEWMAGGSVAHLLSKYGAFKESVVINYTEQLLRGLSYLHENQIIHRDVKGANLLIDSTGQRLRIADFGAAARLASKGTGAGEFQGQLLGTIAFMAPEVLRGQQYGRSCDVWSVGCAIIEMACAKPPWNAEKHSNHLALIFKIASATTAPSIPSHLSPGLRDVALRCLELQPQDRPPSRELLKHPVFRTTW
T3 sequence (P08631 whole entry): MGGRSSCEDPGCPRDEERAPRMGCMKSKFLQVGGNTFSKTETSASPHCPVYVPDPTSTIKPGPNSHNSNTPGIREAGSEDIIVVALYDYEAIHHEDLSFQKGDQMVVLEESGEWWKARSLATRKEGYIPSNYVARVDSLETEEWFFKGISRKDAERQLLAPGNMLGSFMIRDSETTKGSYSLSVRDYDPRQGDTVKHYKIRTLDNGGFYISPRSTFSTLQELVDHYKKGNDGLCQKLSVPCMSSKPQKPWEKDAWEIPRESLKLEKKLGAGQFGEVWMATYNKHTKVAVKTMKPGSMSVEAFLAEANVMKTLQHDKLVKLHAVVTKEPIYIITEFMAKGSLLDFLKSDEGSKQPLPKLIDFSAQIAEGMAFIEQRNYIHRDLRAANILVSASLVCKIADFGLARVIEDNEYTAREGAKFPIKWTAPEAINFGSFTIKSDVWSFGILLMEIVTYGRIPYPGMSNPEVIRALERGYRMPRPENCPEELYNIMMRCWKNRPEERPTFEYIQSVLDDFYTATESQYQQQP
Chain of CSNK1G1 (Q9HCP0 whole entry): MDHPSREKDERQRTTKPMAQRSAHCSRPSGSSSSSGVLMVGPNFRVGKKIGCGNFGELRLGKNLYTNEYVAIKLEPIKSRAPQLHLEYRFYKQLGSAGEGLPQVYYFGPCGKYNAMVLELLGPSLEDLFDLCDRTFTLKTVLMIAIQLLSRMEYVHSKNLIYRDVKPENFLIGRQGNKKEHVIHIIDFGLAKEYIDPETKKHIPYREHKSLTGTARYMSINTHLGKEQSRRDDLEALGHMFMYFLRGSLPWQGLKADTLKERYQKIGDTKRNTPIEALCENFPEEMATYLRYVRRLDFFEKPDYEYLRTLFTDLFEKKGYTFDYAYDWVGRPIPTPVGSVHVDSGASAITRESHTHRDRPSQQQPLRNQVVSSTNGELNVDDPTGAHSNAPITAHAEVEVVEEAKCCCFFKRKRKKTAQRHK
Chain of MAP3K2 (Q9Y2U5 whole entry): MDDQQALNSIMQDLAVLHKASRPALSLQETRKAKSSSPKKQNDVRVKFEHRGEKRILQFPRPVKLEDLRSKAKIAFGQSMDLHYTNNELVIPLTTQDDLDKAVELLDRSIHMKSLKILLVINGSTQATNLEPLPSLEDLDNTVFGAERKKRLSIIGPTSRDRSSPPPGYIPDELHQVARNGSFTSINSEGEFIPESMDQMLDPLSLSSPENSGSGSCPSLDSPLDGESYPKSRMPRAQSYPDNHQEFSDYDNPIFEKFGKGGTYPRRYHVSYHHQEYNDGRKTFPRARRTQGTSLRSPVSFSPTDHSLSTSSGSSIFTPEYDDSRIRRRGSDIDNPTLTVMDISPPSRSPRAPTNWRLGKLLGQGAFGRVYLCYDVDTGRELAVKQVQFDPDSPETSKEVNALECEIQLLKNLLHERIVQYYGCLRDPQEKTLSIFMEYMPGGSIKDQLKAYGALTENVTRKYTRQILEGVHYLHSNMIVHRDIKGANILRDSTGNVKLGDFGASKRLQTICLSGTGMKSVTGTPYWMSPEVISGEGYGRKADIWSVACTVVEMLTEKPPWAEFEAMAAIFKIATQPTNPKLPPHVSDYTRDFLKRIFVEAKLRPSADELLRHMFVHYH
T11 sequence (Q86Y07 whole entry): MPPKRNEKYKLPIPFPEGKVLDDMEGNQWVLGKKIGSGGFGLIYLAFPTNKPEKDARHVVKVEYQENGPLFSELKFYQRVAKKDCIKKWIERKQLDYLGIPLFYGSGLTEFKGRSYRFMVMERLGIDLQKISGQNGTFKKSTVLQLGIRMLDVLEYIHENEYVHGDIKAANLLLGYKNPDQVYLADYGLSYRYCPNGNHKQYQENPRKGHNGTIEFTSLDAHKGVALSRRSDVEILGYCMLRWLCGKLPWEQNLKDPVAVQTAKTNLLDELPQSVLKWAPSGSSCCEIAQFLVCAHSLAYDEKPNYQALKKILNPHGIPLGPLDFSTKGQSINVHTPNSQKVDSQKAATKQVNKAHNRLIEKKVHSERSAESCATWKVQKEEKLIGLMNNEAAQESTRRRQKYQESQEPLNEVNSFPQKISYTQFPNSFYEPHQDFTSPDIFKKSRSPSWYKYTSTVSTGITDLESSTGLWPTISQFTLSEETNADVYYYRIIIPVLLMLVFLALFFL
Chain of MKNK2 (Q9HBH9 whole entry): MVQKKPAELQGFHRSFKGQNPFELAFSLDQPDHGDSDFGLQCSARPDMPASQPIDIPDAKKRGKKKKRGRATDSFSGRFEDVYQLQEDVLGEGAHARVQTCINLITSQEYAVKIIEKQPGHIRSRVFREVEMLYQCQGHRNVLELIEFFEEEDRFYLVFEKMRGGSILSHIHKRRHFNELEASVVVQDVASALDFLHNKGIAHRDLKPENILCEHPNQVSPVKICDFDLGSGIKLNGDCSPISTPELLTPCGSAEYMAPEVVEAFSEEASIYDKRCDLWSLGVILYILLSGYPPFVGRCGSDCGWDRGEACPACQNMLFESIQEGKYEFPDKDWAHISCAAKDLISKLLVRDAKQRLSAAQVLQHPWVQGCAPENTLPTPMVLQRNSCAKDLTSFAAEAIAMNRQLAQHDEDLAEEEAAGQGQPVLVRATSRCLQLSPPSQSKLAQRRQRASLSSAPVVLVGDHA

On to `C=CC(=O)Nc1ccc(OC)c(Nc2cc(-c3[nH]c(CC)nc3-c3cccc(NC(=O)c4cccc5c4NC(=O)c4ccccc4N5)c3)ccn2)c1` [Compound 4, N-(3-(5-(2-((5-Acrylamido-2-methoxyphenyl)amino)pyridin-4-yl)-2-ethyl-1H-imidazol-4-yl)phenyl)-11-oxo-10,11-dihydro-5H-dibenzo[b,e][1,4]diazepine-9-carboxamide], for which the IC50 in [1] was 1.8 ± 0.3 nM. Besides, the remaining binding at 1 µM at ASK2 stood at 100%; at CAMK2B it was 72%; on CSNK1G1, 93%; on EPHA4, 95%; at HCK it was 14%; at KIT(A829P), 56%. The remaining binding at 1 µM at LATS2 is 62%; at MAP3K1, 100%; on MAP3K2 it was 100%; on MKNK2, 100%; at NEK9 it was 83%; on PKMYT1, 99%. Further, the remaining binding at 1 µM was found to be 100% at PYK2; 100% at RIOK3; 86% on SGK; 100% on SLK; 100% on SRPK1; 33% on TNIK. Further, the remaining binding at 1 µM on VRK2 amounted to 100%. In [2], the “EGFR, ERK1/2 and AKT phosphorylation (Western blot)” value is “most effective in suppression of active EGFR (pY1068) as well as downstream pERK; also recorded: reduces EGFR (L858R/T790M), ERK1/2, and AKT phosphorylation”.
